In assay [1] the test system is covalently-activated EGFR variants. The assay is described as follows: Covalent dimer formation, Western blot under non-reducing conditions. Format: cell-based. (In general: Immunoblotting shows a protein as a band on a membrane.)
For assay [2], the system named is GBM. Conditions: in combination with radiation and temozolomide; cited from earlier work.
Assay [3] has as its system cells having the EGFR-Vii mutation. The assay is described as follows: Proliferation of cells having the EGFR-Vii mutation (FIG. 18). Format: cell-based. How it is done: (§1) EC50 values were determined with the same application.
Assay [4] concerns cells expressing ErbB ectodomain variants.
Assay [5] deals with T1, HER2 S310F (Homo sapiens, UniProt P04626, S310F).
T1 construct: expressed in transfected cells; host or cells: BaF3 (murine pro-B)
T1 sequence (P04626 23-1255 S310F): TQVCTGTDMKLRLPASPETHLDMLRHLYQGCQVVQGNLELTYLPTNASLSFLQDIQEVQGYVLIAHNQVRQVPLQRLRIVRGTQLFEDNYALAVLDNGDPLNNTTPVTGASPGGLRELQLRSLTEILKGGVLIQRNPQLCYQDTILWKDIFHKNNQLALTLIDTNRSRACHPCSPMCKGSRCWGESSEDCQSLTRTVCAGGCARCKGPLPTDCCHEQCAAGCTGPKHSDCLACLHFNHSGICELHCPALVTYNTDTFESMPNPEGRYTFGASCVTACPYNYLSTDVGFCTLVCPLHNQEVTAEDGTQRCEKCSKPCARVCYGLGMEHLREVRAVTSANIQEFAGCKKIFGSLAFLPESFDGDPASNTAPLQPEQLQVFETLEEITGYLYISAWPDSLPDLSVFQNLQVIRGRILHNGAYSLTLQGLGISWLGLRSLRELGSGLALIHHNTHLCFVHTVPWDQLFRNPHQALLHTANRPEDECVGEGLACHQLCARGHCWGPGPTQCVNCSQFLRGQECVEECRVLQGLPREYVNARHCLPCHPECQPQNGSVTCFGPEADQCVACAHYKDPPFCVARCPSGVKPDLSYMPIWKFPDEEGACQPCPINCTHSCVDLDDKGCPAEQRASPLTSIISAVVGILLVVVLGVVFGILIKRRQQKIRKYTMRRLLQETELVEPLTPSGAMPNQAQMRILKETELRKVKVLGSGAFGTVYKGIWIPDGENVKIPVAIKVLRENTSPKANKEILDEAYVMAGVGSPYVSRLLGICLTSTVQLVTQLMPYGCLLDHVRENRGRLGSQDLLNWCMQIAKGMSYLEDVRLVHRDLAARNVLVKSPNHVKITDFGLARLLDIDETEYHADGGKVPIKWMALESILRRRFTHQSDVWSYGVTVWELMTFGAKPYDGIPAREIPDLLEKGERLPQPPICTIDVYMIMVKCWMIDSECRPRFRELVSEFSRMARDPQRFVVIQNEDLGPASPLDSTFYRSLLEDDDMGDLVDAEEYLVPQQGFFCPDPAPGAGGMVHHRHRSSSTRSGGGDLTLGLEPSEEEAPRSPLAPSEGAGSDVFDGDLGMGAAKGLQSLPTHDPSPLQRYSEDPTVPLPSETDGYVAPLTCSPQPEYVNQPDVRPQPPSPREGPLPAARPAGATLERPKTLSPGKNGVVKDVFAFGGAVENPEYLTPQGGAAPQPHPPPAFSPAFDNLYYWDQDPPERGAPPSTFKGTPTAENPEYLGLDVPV
The assay is described as follows: Activity for inhibiting HER2 (Table B), HER2 S310F. Conditions: read-out: HER2 S310F, potency code (IC50). Format: cell-based. The method, then:
as §1

In assay [6] the target is T2, HER2 YVMA (Homo sapiens, UniProt P04626, INS775YVMA).
T2 construct: expressed in transfected cells; host or cells: BaF3 (murine pro-B)
T2 sequence (P04626 with tags, fused parts or gaps INS775YVMA): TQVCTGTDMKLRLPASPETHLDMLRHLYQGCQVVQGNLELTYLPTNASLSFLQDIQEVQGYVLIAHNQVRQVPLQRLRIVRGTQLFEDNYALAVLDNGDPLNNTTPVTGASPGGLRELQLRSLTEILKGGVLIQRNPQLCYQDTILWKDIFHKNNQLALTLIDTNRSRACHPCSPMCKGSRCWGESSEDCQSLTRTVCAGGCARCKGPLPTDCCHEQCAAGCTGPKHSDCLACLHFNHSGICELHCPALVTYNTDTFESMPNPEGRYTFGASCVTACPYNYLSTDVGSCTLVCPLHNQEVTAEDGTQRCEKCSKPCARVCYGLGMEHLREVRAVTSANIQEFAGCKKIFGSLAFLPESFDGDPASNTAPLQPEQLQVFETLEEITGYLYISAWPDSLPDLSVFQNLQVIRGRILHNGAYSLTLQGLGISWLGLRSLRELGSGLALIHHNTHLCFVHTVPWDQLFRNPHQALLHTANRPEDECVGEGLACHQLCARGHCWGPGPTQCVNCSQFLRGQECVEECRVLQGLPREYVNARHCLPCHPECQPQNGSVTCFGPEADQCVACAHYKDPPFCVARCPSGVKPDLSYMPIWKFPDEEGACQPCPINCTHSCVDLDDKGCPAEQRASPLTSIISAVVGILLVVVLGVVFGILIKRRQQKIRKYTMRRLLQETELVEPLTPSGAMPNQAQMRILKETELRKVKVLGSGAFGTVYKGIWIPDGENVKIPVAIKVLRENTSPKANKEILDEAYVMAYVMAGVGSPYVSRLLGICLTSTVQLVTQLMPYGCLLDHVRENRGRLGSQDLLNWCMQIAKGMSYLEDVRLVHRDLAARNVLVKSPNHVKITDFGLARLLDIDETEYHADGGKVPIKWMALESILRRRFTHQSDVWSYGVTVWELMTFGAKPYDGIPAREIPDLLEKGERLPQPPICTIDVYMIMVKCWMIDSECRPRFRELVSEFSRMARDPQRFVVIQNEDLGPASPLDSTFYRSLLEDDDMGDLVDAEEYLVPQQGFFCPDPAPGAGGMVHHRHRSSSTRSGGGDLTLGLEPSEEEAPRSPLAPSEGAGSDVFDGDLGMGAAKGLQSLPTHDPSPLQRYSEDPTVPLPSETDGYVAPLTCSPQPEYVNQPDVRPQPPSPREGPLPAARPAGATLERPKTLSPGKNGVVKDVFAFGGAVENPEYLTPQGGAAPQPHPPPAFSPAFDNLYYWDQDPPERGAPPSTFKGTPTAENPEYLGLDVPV
The assay is described as follows: Activity for inhibiting HER2 (Table B), HER2 YVMA. The settings on record: read-out: HER2 YVMA, potency code (IC50). Format: cell-based. How it is done:
as §1

In assay [7] the target is T1, HER2 S310F. The assay is described as follows: BaF3 cell proliferation assay, HER2 S310F (Table B). It is filed as cell-based. Conditions: potency code, 3 days, CellTiterGlo, read-out: HER2 S310F (Activity for Inhibiting HER2). Background: Cellular ATP, detected with luciferase, serves as a proxy for viable cell number.
The target of assay [8] is T3, EGFR V3 (Homo sapiens, UniProt P00533, DELINS30-297G).
T3 construct: expressed in transfected cells; host or cells: BaF3 (murine pro-B), retroviral pMXs-IRES-Blasticidin
The assay is described as follows: BaF3 cell proliferation assay, EGFR V3 (Table A). Format: cell-based. The settings on record: potency code, 3 days, CellTiterGlo, read-out: EGFR V3 (Activity for Inhibiting EGFR). The gist of the method: (§2)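 Readout: EC50 for BaF3 proliferation. Cells stably expressing the receptor variant were generated by retrovirus and IL-3 independence.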

The target in assay [9] is T4, EGFR WT (Homo sapiens, UniProt P00533). The experiment in a line: Activity for inhibiting EGFR (Table A), EGFR WT. Format: cell-based. The settings on record: read-out: EGFR WT, potency code (IC50).
T4 sequence (P00533 25-1210 N540K): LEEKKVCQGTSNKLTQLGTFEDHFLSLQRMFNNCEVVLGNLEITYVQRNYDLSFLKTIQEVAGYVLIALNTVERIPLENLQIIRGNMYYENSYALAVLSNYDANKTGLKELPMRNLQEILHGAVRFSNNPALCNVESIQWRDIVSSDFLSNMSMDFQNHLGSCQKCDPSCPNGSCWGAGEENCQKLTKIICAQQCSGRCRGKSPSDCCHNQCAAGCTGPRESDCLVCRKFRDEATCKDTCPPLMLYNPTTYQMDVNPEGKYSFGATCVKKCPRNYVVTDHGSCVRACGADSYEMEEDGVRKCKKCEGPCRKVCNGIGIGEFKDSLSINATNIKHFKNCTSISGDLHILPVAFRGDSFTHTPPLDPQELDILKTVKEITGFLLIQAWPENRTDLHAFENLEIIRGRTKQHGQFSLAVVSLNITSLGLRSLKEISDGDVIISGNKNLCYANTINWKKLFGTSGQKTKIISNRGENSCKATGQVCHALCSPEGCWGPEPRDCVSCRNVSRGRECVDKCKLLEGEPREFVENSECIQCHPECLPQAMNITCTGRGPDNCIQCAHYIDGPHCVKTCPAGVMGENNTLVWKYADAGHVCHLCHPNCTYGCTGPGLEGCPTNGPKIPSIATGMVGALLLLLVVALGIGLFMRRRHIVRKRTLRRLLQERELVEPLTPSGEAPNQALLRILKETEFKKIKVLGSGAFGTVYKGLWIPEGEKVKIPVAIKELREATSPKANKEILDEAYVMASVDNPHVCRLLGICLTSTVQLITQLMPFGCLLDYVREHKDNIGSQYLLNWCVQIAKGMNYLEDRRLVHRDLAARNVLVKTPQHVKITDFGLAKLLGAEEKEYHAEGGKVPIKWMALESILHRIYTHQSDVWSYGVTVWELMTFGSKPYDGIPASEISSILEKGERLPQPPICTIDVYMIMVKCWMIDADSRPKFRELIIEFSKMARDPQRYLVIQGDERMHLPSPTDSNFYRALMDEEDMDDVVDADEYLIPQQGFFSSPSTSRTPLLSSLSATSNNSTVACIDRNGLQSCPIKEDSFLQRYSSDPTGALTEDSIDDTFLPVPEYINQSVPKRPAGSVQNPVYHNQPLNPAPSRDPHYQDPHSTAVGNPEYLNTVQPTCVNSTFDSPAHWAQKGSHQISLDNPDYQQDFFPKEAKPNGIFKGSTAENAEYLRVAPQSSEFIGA
For assay [10], the system named is HER2 S310F. The assay is described as follows: Tumor pHER2/pERK AlphaLisa in mice bearing HER2 S310F BaF3 tumors (Examples 15-18). It is filed as in vivo. The settings on record: two day acute oral dosing, 15 mg/kg; at peak plasma levels. How it is done:
(§3) Following the second dose, tumors were collected at 2 hours, 5 hours, 12 hours and 24 hours, and analyzed for both pHER2 activity and pERK activity via AlphaLisa. Plasma was also collected at these time points and analayzed for the presence of Compound No. 21 to determine pharmacokinetic profile. The tumor tissue was cut and homogenized using the Precellys Soft Tissue Homogenizing kit (KT03961-1-00.3.2) containing T-PER tissue protein extraction reagent (Thermo Scientific #78510), supplemented with Protease Inhibitor (Sigma P8340), and Phosphatase Inhibitors II and III (Sigma P5726 and P0044). Tissue samples were homogenized in the Precellys machine by spinning two times for one minute each. Sample tubes were centrifuged for 5 min at 15,000 rpm at 4° C. The supernatant was transferred to a fresh microtube and spun again for 5 minutes at 15,000 rpm at 4° C. Supernatant was then transferred to a fresh microtube and placed on ice. The protein concentration of the supernatant was measured using the BCA reagent Kit (Thermo Scientific #23225). Tumor tissue-derived lysates were analyzed for either HER2 activity or EGFR activity by detection of pHER2 (Tyr1221/1222) or pERK (Thr202/Tyr204) phosphosites, respectively, via AlphaLisa. Briefly, tumor Lysates were diluted to 0.5 ug/ul in 1× diluted SureFire Ultra Kit Lysis Buffer (5× supplied stock) supplemented with Protease Inhibitor (Sigma P8340) and Phosphatase Inhibitor II and III (Sigma P5726 and P0044). 10 ul of total tumor lysate was added per well in triplicate to a 384-well Opti-plate (Perkin Elmer #6007290). Activation Buffer was diluted 25-fold in combined Reaction Buffer 1 and Reaction Buffer 2, and acceptor beads were diluted 50-fold in the combined Reaction Buffers. 5 ul/well of the Acceptor bead:Reaction buffer mixture was added to each well.
as §3, with “No. 5” for “No. 21”, “Buffer (X” for “Buffer (5×”
To determine the ability of Compound No. 118 to inhibit tumor growth and induce tumor regression in vivo, a mouse tumor model containing the HER2 S310F mutation was used. Athymic nude mice from Charles River Labs bearing HER2 S310F BaF3 tumors were treated with two day acute oral dosing of Compound No. 118 at 15 mg/kg. […]
Background: Bead proximity is the source of the signal in Alpha formats.

Assay [11] deals with T3, EGFR V3. The experiment in a line: Activity for inhibiting EGFR (Table A), EGFR V3 (EGFR-Viii). It is filed as cell-based. Conditions: read-out: EGFR V3, potency code (IC50).
In assay [12] the target is T2, HER2 YVMA. The assay is described as follows: BaF3 cell proliferation assay, HER2 YVMA (Table B). It is filed as cell-based. Conditions: potency code, 3 days, CellTiterGlo, read-out: HER2 YVMA (Activity for Inhibiting HER2).
For assay [13], the target named is T5, HER2 WT (Homo sapiens, UniProt P04626). The assay is described as follows: BaF3 cell proliferation assay, HER2 WT (Table B). Format: cell-based. The settings on record: potency code, 3 days, CellTiterGlo, read-out: HER2 WT (Activity for Inhibiting HER2).
T5 sequence (P04626 23-1255): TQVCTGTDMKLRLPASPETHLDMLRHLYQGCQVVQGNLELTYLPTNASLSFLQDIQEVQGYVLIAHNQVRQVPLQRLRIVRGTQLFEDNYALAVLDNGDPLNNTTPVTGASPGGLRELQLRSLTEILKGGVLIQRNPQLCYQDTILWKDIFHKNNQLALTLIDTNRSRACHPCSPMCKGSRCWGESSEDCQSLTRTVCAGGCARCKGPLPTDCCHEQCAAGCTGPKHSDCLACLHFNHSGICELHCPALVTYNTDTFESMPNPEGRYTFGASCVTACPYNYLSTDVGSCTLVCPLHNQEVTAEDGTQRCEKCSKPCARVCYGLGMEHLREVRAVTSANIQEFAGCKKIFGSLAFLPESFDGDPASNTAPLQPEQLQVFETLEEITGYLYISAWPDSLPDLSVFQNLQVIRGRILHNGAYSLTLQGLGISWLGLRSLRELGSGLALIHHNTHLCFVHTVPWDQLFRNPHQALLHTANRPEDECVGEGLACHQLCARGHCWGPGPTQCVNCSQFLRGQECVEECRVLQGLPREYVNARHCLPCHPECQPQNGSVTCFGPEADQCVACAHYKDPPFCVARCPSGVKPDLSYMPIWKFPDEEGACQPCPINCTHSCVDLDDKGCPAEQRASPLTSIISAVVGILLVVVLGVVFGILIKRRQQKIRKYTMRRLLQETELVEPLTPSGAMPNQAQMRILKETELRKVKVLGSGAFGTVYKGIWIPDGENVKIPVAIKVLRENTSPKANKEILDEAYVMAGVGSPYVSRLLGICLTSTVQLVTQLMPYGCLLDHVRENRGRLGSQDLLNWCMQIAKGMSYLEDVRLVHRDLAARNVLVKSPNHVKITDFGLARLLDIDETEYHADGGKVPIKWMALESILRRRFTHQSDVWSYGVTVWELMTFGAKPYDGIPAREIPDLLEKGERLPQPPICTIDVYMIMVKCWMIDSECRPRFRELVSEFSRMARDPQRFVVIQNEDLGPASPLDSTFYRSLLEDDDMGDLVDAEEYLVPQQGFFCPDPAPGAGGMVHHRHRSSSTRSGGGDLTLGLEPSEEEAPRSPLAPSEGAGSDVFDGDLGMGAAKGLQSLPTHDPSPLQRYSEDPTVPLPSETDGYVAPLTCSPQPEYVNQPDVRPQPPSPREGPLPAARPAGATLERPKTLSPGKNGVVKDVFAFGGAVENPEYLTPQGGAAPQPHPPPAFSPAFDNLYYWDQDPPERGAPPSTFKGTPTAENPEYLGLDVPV
In assay [14] the target is T5, HER2 WT. The assay is described as follows: Activity for inhibiting HER2 (Table B), HER2 WT. It is filed as cell-based.
Assay [15] deals with T4, EGFR WT. The experiment in a line: BaF3 cell proliferation assay, EGFR WT (Table A). Format: cell-based. The settings on record: potency code, 3 days, CellTiterGlo, read-out: EGFR WT (Activity for Inhibiting EGFR). The procedure, abridged: as §2
Assay [16] has as its system HER2 extracellular variants. The experiment in a line: Covalent dimer formation of HER2 extracellular variants, Western blot. Format: cell-based. Conditions: Type I inhibitors.
The test system of assay [17] is BaF3-HER2-Δ16 cells. The experiment in a line: Proliferation of BaF3 cells driven by HER2-Δ16. Format: cell-based, murine. The settings on record: sub-saturating concentrations.
Experimental: Assay for cell proliferation: BaF3 cell lines were resuspended at 1.3E5 c/ml in RPMI containing 10% Heat Inactivated FBS, 2% L-glutamine and 1% Pen/Strep and dispensed in triplicate (17.5E4 c/well) into 96 well plates. To determine the effect of drug on cell proliferation, cells incubated for 3 days in the presence of vehicle control or test drug at varying concentrations. Inhibition of cell growth was determined by luminescent quantification of intracellular ATP content using CellTiterGlo (Promega), according to the protocol provided by the manufacturer. Comparison of cell number on day 0 versus 72 hours post drug treatment was used to plot dose-response curves. The number of viable cells was determined and normalized to vehicle-treated controls. […] EC50 values were determined with the same application.

Each structure is given as a SMILES string. Some results are limits rather than exact numbers.

`C=CC(=O)Nc1cccc(Nc2nc(Nc3ccc(N4CCN(C(C)=O)CC4)cc3OC)ncc2C(F)(F)F)c1` [CO-1686]: the Induced dimers result in [1] is given as “Yes”.

For the molecule `C#Cc1cccc(Nc2ncnc3cc(OCCOC)c(OCCOC)cc23)c1` [Erlotinib, erlotinib], in assay [2], the “median OS (mOS)” value is on record as 8.6 months and the “median PFS (mPFS)” value is 2.8 months.

As for `CN(C)C/C=C/C(=O)Nc1cc2c(Nc3ccc(F)c(Cl)c3)ncnc2cc1C#CC1[C@H]2COC[C@@H]12` (some centres unmarked) [NT-113], the “dimerization for covalently activated ErbB receptors” value in assay [1] (FIG. 18 legend) is on record as “induces dimerization”. Further, in [3], the “cellular proliferation in response to the inhibitor” value is recorded as “no evidence for increased cellular proliferation”.

As to `CCOc1cc2ncc(C#N)c(Nc3ccc(OCc4ccccn4)c(Cl)c3)c2cc1NC(=O)/C=C/CN(C)C` [Neratinib, neratinib], in assay [4], the paradoxical activation result is recorded as “devoid of paradoxical activation”.

Turning to `CCOc1cc2ncc(C#N)c(Nc3ccc(F)c(Cl)c3)c2cc1NC(=O)/C=C/CN(C)C` [Pelitinib, pelitinib], the Induced dimers entry in [1] is “Yes”.

In the case of `C=CC(=O)Nc1cccc(Oc2nc(Nc3ccc(N4CCN(C)CC4)cc3)ncc2Cl)c1` [WZ3146], the Induced dimers result in [1] is “Yes”.

On to `C=CC(=O)Nc1cccc(Oc2nc(Nc3ccc(N4CCN(C)CC4)cc3OC)ncc2Cl)c1` [WZ4002], for which the Induced dimers result in assay [1] is given as “Yes”.

As to `C=CC(=O)Nc1cccc(Sc2nc(Nc3ccc(N4CCN(C)CC4)cc3)ncc2Cl)c1` [WZ8040], the Induced dimers result in assay [1] is on record as “Yes”.

For the molecule `C=CC(=O)Nc1cc2c(Nc3ccc(OCc4cccc(F)c4)c(Cl)c3)ncnc2cc1OCCN1CCOCC1` [compound 27], the IC50 in assay [5] was in the range of 20 to 30 nM; in assay [6], 30 to 50 nM; in assay [7], 20 to 30 nM; in [8], 30 to 50 nM; in [9], 300 to 500 nM; in [11] it was 30 to 50 nM. The IC50 in assay [12] is 30 to 50 nM; in [13] it was 10 to 20 nM; in assay [14] (Table B, read-out: HER2 WT, potency code (IC50)), 10 to 20 nM; in assay [14] (text lists of compounds, read-out: IC50 value for inhibiting wild-type HER2) it was no more than 20 nM; in assay [15], 300 to 500 nM. Besides, the “pERK1/2 (Thr202/Tyr204) in tumors” value in assay [10] is “reduction”. In [10], the “pHER2 (Tyr1221/1222) in tumors” value is “reduction”.

In the case of `C=CC(=O)Nc1cc2c(Nc3ccc(OCc4ccccn4)c(Cl)c3)ncnc2cc1OCCCN1CC(OC)C1` [compound 118], the IC50 fell in the range of 10 to 20 nM in assay [5]; 20 to 30 nM in assay [6]; 10 to 20 nM in [7]; 20 to 30 nM in assay [8]; 200 to 300 nM in assay [9]; 20 to 30 nM in assay [11]. In addition, the figures for the IC50 in [12] and in assay [15] were 20 to 30 nM and 200 to 300 nM, respectively. For the same molecule, the “pERK1/2 (Thr202/Tyr204) in tumors” value in assay [10] is listed as “reduction”. Moreover, the “pHER2 (Tyr1221/1222) in tumors” value in [10] is recorded as “reduction”.

`CNC(=O)CN1CCC(Oc2cc3c(Nc4cccc(Cl)c4F)ncnc3cc2OC)CC1` [sapitinib]: the “covalent dimers for HER2 extracellular variants” value in assay [16] is reported as “induce the expression of covalent dimers”. Moreover, the “proliferation of BaF3 cells driven by HER2-Δ16” value in assay [17] was “paradoxically stimulate the proliferation”.

The record behind these values is patent publication US11034672B1, “Tyrosine kinase inhibitor compositions, methods of making and methods of use” (Black Diamond Therapeutics, Inc., priority 2018, dated 2021).
